Reference: US7507739B2, “6-[(substituted)phenyl]triazolopyrimidines as anticancer agents” (Wyeth, priority 2003, dated 2009)

Assays:
[1] = system: KB-8-5 cells; assay: MTS cytotoxicity test with KB-8-5 cells (moderate P-glycoprotein); format: cell-based, human
Excerpt: (§1) Human cancer cell lines, unless otherwise noted, are obtained from the American Type Culture Collection (Rockville, Md.). The following drug-sensitive parental cell lines, and their derived drug-resistant counterparts, are obtained from the originators as listed: (a) S1 (parental line from a subclone of human colon carcinoma line LS174T) and derived S1-M1-3.2 (herein called S1-M1) which expresses the MXR drug transporter protein, are provided by Dr. L. Greenberger, Wyeth Research (Rabindran, S. K., He, H., Singh, M., Brown, E., Collins, K. I., Annable, T., and Greenberger, L. M. Reversal of a novel multidrug resistance mechanism in human colon carcinoma cells by fumitremorgin C. Cancer Res., 58:5850-5858,1998); (b) parental HL-60 human promyelocytic leukemia line and derived HL-60/ADR, which expresses the MRP1 drug transporter protein, are provided by Dr. M. Center, University of Kansas (McGrath, T., and Center, M. S. Adriamycin resistance in HL60 cells in the absence of detectable P-glycoprotein. Biochem. Biophys. […] J. Biol. Chem., 261: 7762-7770,1986) via Dr. L. Greenberger, Wyeth Research.
(§2) The assay, which is sold in kit form by Promega (Madison, Wis.; CellTiter 96 AQueous Non-Radioactive Cell Proliferation Assay), is based on the conversion by viable cells, but not by dead cells, of the tetrazolium salt, MTS (3-(4,5-dimethylthiazol-2-yl)-5-(3-carboxymethoxyphenyl)-2-(4-sulphophenyl)-2H-tetrazolium, inner salt), into a water-soluble colored formazan which is detected by spectrophotometry. Compounds are tested at nine concentrations, in order to determine IC50 values. For the test procedure, cells are harvested by trypsinization (or, in the case of non-adherent cells, by simple resuspension), washed, counted and distributed to wells of 96-well flat-bottom microtiter plates at 1000 cells per well in 200 μL of medium. In addition, one row of wells on a separate plate received cells as above (“time 0” plate). All plates are incubated at 37° in humidified 5% CO2 in air for about 24 hr.
(§3) On day 2, compounds for test are diluted and added to wells. Compounds are dissolved in DMSO at 10 mg/mL. For each compound, nine serial 2-fold dilutions are prepared in DMSO. Ten μL of each dilution in DMSO is transferred to 100 μL of medium, mixed well, and then 5 μL of this dilution is transferred in quadruplicate to wells containing cells. […] Plates are returned to the incubator for three days. At the time of drug addition to the experimental plates, the MTS assay is run on the “time 0” plate. This produced the “time 0 MTS value” which is related to the number of viable cells per well at the time of drug addition.
(§4) After three days of culture with test compounds (day 5 overall), the MTS assay is done on all wells of the experimental plates. The absorbance values of the quadruplicate sample wells are averaged and divided by the average of the “time 0” values. […] The nine values for each compound are plotted against concentration, and the concentration that produced a relative color yield half way between the maximum and minimum is taken as the IC50 value.
(§5) The KB lines express different amounts of the P-glycoprotein (MDR1) membrane pump which produces resistance to the action of many cytotoxic compounds, including paclitaxel and vincristine. The parental KB line expresses no P-glycoprotein, KB-8-5 expresses moderate levels of the protein, and KB-V1 expresses very high levels.

[2] = system: HL-60 cells; assay: MTS cytotoxicity test with HL-60 cells; format: cell-based; details: Homo sapiens; HL-60 cells, MTS; read-out: IC50 HL-60
Excerpt: as §1, §2, §3, §4
(§6) HL-60/ADR cells overexpress the multidrug resistance protein MRP1 which mediates resistance to some chemotherapeutics (Gottesman, M. M., Fojo, T., and Bates, S. E. Multidrug resistance in cancer: role of ATP-dependent transporters. Nature Rev. Cancer, 2: 48-58, 2002). The IC50 values of representative examples of this invention, as well as reference compounds, on HL-60/ADR are compared to values on the sensitive parental HL-60 line.

[3] = system: HL-60/ADR cells; assay: MTS cytotoxicity test with HL-60/ADR cells (MRP1); format: cell-based, human; details: IC50 on HL-60/ADR cells/IC50 on HL-60 cells
Excerpt: as §1, §2, §3, §4, §6

[4] = system: KB cells; assay: MTS cytotoxicity test with KB cells; format: cell-based; details: Homo sapiens; KB cells, MTS; read-out: IC50 KB
Excerpt: as §1, §2, §3, §4, §5

[5] = system: KB-V1 cells; assay: MTS cytotoxicity test with KB-V1 cells (very high P-glycoprotein); format: cell-based, human; details: IC50 on KB VI cells/IC50 on KB cells
Excerpt: as §1, §2, §3, §4, §5

[6] = system: S1-M1 cells; assay: MTS cytotoxicity test with S1-M1 cells (MXR); format: cell-based, human; details: for Ratio: IC50 on S1-M1 cells/IC50 on S1 cells
Excerpt: as §1, §2, §3, §4
as §6, with “S1-M1” for “HL-60/ADR”, “MXR transporter” for “multidrug resistance protein MRP1”, “Miltidrug” for “Multidrug”, “S1” for “HL-60”

[7] = system: S1 cells; assay: MTS cytotoxicity test with S1 cells; format: cell-based; details: Homo sapiens
Excerpt: as §1, §2, §3, §4
as §6, with “S1-M1” for “HL-60/ADR”, “MXR transporter” for “multidrug resistance protein MRP1”, “Miltidrug” for “Multidrug”, “S1” for “HL-60”

SMILES: O=C1c2c(O)ccc(O)c2C(=O)c2c(NCCNCCO)ccc(NCCNCCO)c21 [Mitoxantrone, reference compound]
- IC50 ([1]; Homo sapiens, KB-8-5 cells, MTS, read-out: IC50 KB 8.5): 27 nM
- Ratio 8.5/KB ([1]; IC50 on KB 8.5 cells/IC50 on KB cells): 1.1
- IC50 [2]: 9.5 nM
- Ratio [3]: 17
- IC50 [4]: 25 nM
- Ratio VI/KB [5]: 77
- IC50 ([6]; Homo sapiens, S1-M1 cells, MTS, read-out: IC50 S1-M1): > 3000 nM
- Ratio [6]: >300
- Ratio ([6]; listed as mitoxantrone): > 300
- IC50 [7]: 10 nM
